Measurements taken from patent publication US9828375B2, “4-position substituted pyrazolopyrimidine derivative, and use thereof in drug preparation” (Guangxi Wuzhou Pharmaceuticals (Group) Co., Ltd., priority 2012, dated 2017).

Columns and labels:
Format in all cases: biochemical
[1] = molecular target: FGFR1 (Homo sapiens, UniProt P11362); test: Kinase inhibition activity test, isotope labeling: FGFR1; details: ATP 200 μM; read-out: FGFR1 IC50 value (inhibitory activity value)
Description: (§1) The purpose of this experiment was to test the inhibitory activity of the compound of the invention for in vitro kinase with the isotope labeling method (the γ phosphate group on ATP was labeled). In this experiment, the in vitro activity inhibition of such kinases as FLT3, VEGFR2, FLT1, FLT4, RET, c-RAF, B-RAF, c-KIT, PDGFα, PDGFβ, FGFR2, FGFR1, EphA2, EphB2, SRC, ABL, ALK and Met was tested respectively. Staurosporine was reference molecule (or referred to as positive control). The kinase inhibition activity of the test compound was expressed by half-inhibitory concentration (IC50) or the kinase activity inhibition rate of the test compound at a concentration of 10 μM. The IC50 value could be obtained by calculating the kinase activity inhibition rate of the test compound at different concentrations.
(§2) 20 mM 3-(N-morpholinyl)propanesulfonic acid (MOPS); 1 mM ethylenediaminetetraacetic acid (EDTA), 0.01% Brij 35 (Brij-35), 5% glycerol, 0.1% mercaptoethanol, 1 mg/mL bovine serum albumin (BSA), 10 mM manganous dichloride solution (MnCl2), 0.1 mg/mL glutamic acid/tyrosine (4:1) polypeptide (poly(Glu, Tyr)4:1), 50 μM EAIYAAPFAKKK (substrate of FLT3), 0.33 mg/mL myelin basic protein (substrate of VEGFR2), 250 μM KKKSPGEYVNIEFG (substrate of FLT1(h)), 500 μM GGEEEEYFELVKKKK (substrate of FLT4(h)), 250 μM KKKSPGEYVNIEFG (substrate of RET), 0.66 mg/mL myelin basic protein (substrate of C-RAF), 250 μM GGMEDIYFEFMGGKKK (substrate of c-Kit), 250 μM GGMEDIYFEFMGGKKK (substrate of PDGFα), 250 μM KKKSPGEYVNIEFG (substrate of FGFR1), […] GGEEEEYFELVKKKK (substrate of SRC), 50 μM EAIYAAPFAKKK (substrate of ABL), 250 μM KKKSPGEYVNIEFG (substrate of ALK), 250 μM KKKSPGEYVNIEFG (substrate of Met(h)), 10 mM magnesium acetate and γ-^33 P-ATP solution, stop buffer (3% phosphate buffer), washing buffer (75 mM phosphate solution), methanol, Filtermat A membrane, FLT3, VEGFR2, FLT3, VEGFR2, FLT1, FLT4, RET, c-RAF, B-RAF, c-KIT, PDGFRα, PDGFRβ, FGFR2, FGFR1, EphA2, EphB2, SRC, ABL, ALK, Met and other kinases, and the test compounds.
(§3) Buffers (8 mM MOPS with pH value of 7.0, 0.2 mM EDTA and 10 mM MnCl2), (5-10 mU) kinases to be tested (FLT3, VEGFR2, FLT1, FLT4, RET, c-RAF, B-RAF, c-KIT, PDGFRα, PDGFRβ, FGFR2, FGFR1, EphA2, EphB2, SRC, ABL, ALK and Met), substrates of kinases to be tested (refer to experimental materials), 10 mM magnesium acetate and γ-^33 P-ATP solution, and test compounds at different concentrations were added to a reaction tube orderly. […] Reaction was terminated with 5 μL 3% phosphate buffer finally, and 10 μL reaction solution was titrated to the Filtermat A membrane; solution was washed for 3 times with 75 mM phosphate solution with each time lasting 5 minutes, and then washed once with methanol. […]

[2] = molecular target: PDGFRβ (Homo sapiens, UniProt P09619); test: Kinase inhibition activity test, isotope labeling: PDGFRβ; details: ATP 200 μM; read-out: PDGFRβ IC50 value (inhibitory activity value)
Description: as §1, §2, §3

[3] = molecular target: c-RAF (Homo sapiens, UniProt P04049); test: Kinase inhibition activity test, isotope labeling: c-RAF; details: ATP 45 μM; read-out: c-RAF IC50 value (inhibitory activity value)
Description: as §1, §2, §3

[4] = molecular target: SRC (Homo sapiens, UniProt P12931); test: Kinase inhibition activity test, isotope labeling: SRC; details: ATP 45 μM; read-out: SRC IC50 value (inhibitory activity value)
Description: as §1, §2, §3

[5] = molecular target: T1, EphB2 (Homo sapiens, UniProt P29323); test: Kinase inhibition activity test, isotope labeling: EphB2; details: ATP 10 μM; read-out: EphB2 IC50 value (inhibitory activity value)
T1 sequence (P29323 19-1055): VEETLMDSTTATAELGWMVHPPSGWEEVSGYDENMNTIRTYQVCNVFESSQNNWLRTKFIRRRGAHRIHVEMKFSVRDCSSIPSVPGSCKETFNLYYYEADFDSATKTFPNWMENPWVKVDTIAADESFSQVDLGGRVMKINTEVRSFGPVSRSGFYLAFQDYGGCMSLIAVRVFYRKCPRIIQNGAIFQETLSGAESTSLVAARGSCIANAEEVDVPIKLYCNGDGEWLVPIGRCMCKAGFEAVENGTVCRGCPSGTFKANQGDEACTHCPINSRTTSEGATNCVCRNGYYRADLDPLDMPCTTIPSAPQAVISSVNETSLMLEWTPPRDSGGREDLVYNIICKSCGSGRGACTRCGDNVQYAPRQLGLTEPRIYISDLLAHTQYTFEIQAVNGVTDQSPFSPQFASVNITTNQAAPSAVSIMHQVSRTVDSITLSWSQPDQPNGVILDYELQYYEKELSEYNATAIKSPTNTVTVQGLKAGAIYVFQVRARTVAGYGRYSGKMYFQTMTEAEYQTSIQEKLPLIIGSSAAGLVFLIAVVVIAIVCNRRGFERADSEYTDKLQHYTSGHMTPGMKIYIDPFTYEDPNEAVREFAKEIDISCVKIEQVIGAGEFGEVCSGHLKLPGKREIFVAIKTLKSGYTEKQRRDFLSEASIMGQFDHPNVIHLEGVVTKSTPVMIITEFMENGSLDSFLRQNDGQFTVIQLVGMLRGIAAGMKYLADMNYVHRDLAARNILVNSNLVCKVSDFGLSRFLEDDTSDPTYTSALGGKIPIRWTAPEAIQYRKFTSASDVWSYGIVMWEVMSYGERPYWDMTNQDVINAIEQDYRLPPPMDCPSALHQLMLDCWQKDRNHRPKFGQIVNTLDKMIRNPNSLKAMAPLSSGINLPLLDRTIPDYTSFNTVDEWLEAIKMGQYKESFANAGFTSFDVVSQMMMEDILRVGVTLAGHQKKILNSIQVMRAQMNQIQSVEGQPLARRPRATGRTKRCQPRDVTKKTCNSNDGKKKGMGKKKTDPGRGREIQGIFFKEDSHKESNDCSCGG
Description: as §1, §2, §3

[6] = molecular target: EphA2 (Homo sapiens, UniProt P29317); test: Kinase inhibition activity test, isotope labeling: EphA2; details: ATP 155 μM; read-out: EphA2 IC50 value (inhibitory activity value)
Description: as §1, §2, §3

Sequence of c-RAF (P04049 whole entry): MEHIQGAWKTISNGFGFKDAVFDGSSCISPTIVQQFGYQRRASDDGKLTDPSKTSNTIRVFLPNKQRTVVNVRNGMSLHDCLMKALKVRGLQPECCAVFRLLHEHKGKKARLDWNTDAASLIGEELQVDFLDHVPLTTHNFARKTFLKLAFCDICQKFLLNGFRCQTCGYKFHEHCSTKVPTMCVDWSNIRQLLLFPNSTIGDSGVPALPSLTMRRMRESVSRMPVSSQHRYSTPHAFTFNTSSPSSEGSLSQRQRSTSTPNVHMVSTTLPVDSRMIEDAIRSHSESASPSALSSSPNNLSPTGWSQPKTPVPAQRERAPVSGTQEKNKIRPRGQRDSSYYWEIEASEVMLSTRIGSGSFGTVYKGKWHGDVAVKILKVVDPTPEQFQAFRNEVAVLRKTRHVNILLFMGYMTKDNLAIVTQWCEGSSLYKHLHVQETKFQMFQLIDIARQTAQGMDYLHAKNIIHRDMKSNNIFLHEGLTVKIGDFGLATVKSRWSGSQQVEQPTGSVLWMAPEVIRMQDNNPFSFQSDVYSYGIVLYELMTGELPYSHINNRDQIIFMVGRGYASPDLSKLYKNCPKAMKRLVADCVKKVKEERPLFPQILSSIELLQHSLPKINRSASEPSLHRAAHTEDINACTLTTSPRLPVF
Sequence of SRC (P12931 whole entry): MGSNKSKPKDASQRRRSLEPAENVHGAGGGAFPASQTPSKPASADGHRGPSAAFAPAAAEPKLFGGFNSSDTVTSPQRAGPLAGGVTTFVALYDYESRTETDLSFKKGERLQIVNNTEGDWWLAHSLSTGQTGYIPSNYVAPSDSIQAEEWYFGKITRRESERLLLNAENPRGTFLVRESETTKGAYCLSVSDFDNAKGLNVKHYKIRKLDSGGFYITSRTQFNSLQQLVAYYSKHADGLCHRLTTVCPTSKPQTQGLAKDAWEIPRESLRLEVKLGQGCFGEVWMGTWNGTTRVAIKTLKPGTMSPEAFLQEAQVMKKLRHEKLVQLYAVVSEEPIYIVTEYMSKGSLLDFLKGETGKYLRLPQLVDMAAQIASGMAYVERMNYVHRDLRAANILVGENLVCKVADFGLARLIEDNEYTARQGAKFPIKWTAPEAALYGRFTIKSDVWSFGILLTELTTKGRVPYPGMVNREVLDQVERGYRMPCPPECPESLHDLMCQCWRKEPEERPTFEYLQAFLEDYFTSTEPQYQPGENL
Sequence of PDGFRβ (P09619 33-1106): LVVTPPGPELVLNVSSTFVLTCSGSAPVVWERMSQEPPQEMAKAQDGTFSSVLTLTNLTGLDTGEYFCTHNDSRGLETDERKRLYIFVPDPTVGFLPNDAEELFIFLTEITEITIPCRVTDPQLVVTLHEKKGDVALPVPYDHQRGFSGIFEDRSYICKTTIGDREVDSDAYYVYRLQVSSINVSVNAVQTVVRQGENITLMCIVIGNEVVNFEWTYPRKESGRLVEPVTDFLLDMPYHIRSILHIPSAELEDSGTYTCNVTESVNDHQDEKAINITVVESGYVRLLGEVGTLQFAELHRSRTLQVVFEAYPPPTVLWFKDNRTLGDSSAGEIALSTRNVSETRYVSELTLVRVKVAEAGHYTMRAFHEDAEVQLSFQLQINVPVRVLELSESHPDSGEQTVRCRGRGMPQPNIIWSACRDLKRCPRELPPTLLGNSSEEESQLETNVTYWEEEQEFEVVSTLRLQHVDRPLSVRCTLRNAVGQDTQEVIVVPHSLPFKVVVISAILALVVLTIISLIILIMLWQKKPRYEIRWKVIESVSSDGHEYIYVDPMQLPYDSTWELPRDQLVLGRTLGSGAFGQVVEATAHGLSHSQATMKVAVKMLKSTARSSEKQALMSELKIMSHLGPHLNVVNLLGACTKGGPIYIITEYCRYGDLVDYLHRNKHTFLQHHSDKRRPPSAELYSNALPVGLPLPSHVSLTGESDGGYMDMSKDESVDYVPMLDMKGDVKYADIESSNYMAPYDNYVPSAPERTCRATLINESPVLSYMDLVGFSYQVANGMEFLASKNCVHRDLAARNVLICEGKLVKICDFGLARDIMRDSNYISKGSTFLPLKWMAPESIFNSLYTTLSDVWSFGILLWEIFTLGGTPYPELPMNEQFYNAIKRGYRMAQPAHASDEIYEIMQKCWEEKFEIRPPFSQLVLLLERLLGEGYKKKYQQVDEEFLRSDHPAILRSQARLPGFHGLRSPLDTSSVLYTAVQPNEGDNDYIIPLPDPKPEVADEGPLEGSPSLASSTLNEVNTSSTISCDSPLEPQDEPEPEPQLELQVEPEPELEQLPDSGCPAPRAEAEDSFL
Sequence of EphA2 (P29317 24-976): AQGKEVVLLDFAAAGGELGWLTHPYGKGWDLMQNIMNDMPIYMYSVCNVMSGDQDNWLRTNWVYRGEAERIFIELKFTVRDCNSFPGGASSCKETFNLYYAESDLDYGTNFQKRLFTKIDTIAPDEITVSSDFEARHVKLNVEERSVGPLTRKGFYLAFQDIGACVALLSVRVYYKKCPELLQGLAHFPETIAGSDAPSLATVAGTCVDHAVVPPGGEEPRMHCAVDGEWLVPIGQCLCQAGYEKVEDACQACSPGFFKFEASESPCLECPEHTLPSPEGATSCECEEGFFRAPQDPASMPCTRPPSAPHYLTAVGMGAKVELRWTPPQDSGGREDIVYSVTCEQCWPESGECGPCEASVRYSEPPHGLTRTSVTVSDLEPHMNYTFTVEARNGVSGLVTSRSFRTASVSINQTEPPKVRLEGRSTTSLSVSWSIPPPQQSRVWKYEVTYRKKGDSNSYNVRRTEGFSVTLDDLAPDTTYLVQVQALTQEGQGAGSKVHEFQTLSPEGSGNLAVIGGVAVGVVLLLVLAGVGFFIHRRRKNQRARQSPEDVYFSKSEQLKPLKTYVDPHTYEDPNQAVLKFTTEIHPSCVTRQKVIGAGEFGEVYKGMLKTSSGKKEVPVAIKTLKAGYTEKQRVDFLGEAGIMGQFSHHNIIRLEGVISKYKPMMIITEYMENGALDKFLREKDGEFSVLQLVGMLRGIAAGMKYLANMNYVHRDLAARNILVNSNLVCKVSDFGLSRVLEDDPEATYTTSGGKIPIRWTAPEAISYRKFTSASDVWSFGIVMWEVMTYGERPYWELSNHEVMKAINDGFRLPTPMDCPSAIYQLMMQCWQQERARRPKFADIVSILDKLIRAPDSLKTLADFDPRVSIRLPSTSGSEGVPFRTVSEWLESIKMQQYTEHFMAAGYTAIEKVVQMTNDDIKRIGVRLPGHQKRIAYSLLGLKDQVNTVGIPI
Sequence of FGFR1 (P11362 22-822): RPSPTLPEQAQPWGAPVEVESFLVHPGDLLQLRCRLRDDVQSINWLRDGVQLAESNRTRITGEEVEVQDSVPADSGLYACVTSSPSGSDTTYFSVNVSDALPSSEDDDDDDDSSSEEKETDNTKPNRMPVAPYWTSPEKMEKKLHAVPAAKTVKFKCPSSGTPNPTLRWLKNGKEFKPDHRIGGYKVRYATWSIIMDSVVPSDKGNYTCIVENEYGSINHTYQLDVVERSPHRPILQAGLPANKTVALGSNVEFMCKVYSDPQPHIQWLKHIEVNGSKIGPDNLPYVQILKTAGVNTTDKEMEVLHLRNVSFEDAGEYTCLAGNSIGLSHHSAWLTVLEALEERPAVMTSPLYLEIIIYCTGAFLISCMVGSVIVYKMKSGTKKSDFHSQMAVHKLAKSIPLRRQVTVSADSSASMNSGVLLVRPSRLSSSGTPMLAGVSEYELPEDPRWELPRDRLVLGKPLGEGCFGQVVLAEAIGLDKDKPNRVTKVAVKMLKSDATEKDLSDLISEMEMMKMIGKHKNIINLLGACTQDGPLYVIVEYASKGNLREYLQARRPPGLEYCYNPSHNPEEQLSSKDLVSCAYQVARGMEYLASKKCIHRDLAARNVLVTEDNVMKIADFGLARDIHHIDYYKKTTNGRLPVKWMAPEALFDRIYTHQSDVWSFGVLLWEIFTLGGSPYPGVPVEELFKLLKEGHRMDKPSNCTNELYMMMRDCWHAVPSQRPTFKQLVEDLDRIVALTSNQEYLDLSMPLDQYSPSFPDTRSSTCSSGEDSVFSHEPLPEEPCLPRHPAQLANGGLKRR

IC50 [1] [µM]	IC50 [2] [nM]	IC50 [3] [nM]	IC50 [4] [µM]	IC50 [5] [µM]	IC50 [6] [µM]	SMILES
< 10	< 10000	46	< 10	< 10	< 10	CC(C)(C)c1cc(NC(=O)Nc2ccc(Oc3ncnc4[nH]ncc34)c(F)c2)no1 [4a-31]
< 10	< 10000	53	< 10	< 10	< 10	CC(C)(C)c1cc(NC(=O)Nc2ccc(Oc3ncnc4[nH]ncc34)cc2)on1 [4a-25]
< 10	408	72	< 10	< 10	< 10	O=C(Nc1ccc(Oc2ncnc3[nH]ncc23)cc1)Nc1ccc(Cl)c(C(F)(F)F)c1 [4a-2]

SMILES	IC50 [1] [µM]	IC50 [2] [nM]	IC50 [3] [nM]	IC50 [4] [µM]	IC50 [5] [µM]	IC50 [6] [µM]
O=C(Nc1ccc(Oc2ncnc3[nH]ncc23)cc1)Nc1cccc(C(F)(F)F)c1 [4a-6]	2.25	184	82	3.01	0.138	0.056
